In US20160052936A1, “SPIROINDOLINE DERIVATIVES FOR USE AS GONADOTROPIN-RELEASING HORMONE RECEPTOR ANTAGONISTS” (BAYER PHARMA AKTIENGESELLSCHAFT, priority 2013, published 2016):

Assays:
[1] = In vivo pharmacokinetics in rats; conditions: Wistar, rat, plasma, po, male rats, 2 mg/kg p.o.; for bioavailability: AUCnorm intragastral / AUCnorm i.v. (0.5 mg/kg), read-out: F (oral bioavailability)
Experimental: 2.4 In Vivo Pharmacokinetics in Rats
For in vivo pharmacokinetic experiments test compounds were administered to male Wistar rats intravenously at a dose of 0.5 mg/kg and intragastral at a dose of 2 mg/kg formulated as solutions using solubilizers such as PEG400 or Solutol in well-tolerated amounts.
For pharmacokinetics after intravenous administration test compounds were given as i.v. bolus and blood samples were taken at 2 min, 8 min, 15 min, 30 min, 45 min, 1 h, 2 h, 4 h, 7 h and 24 h after dosing. […] For pharmacokinetics after intragastral administration test compounds were given intragastral to fasted rats and blood samples were taken at 8 min, 15 min, 30 min, 45 min, 1 h, 2 h, 4 h, 7 h and 24 h after dosing. […] Blood was collected into Lithium-Heparintubes (Monovetten®, Sarstedt) and centrifuged for 15 min at 3000 rpm. An aliquot of 100 μL from the supernatant (plasma) was taken and precipitated by addition of 400 μL cold acetonitril and frozen at −20° C. over night. Samples were subsequently thawed and centrifuged at 3000 rpm, 4° C. for 20 minutes. Aliquots of the supernatants were taken for analytical testing using an Agilent 1200 HPLC-system with LCMS/MS detection. PK parameters were calculated by non-compartmental analysis using a PK calculation software.
PK parameters derived from concentration-time profiles after i.v.: CLplasma: Total plasma clearance of test compound (in L/kg/h); CLblood: Total blood clearance of test compound: CLplasma*Cp/Cb (in L/kg/h) with Cp/Cb being the ratio of concentrations in plasma and blood. PK parameters calculated from concentration time profiles after i.g.: Cmax: Maximal plasma concentration (in mg/L); Cmaxnorm: Cmax divided by the administered dose (in kg/L); Tmax: Time point at which Cmax was observed (in h). Parameters calculated from both, i.v. and i.g. concentration-time profiles: AUCnorm: Area under the concentration-time curve from t=0 h to infinity (extrapolated) divided by the administered dose (in kg*h/L); AUC(0−tlast)norm: Area under the concentration-time curve from t=0 h to the last time point for which plasma concentrations could be measured divided by the administered dose (in kg*h/L); t½: terminal half-life (in h); F: oral bioavailability: AUCnorm after intragastral administration divided by AUCnorm after intravenous administration (in %).

[2] = tested on: LH level in ovariectomized rats; experiment: LH suppression in the ovariectomized rat; format: in vivo; conditions: for LH suppression: 8 hours after administration
Description: 2.5. LH Suppression in the Ovariectomized Rat
The in vivo potency of GnRH antagonists can be quantified by a LH suppression test in ovariectomized rats. GnRH triggers the LH release from the pituitary mediated by GnRH receptors. Ovarectomy of adult female rats results in elevated levels of circulating LH due to a lack of negative feedback by gonadal steroids. GnRH antagonists suppress the release of LH and accordingly suppression of LH levels can be used to quantify the in vivo potency of GnRH antagonists.
Female adult rats were ovariectomized surgically and they were allowed to recover for at least one week. The animals received 0.5 mg/kg, 3 mg/kg or 10 mg/kg of Example 3.1 by single per oral administration. For comparison reasons a vehicle control and a positive control, 0.1 mg/kg cetrorelix (i.p.), were given once. At 0 min, 15 min, 30 min, 1 hour, 2 hours, 4 hours, 8 hours and 24 hours after compound administration blood was taken from the retro orbital plexus (n=6 per blood withdrawal) for the measurement of serum LH and serum compound levels.
As nonbinding explanatory example of compounds according to the invention FIG. 1 represents the LH level following administration of the compound according to Example 3.1, to ovariectomized adult rats. [Filled circle: Vehicle; Circle, dotted black line: Cetrorelix (0.1 mg/kg); Triangle: Example 3.1 (0.5 mg/kg); Reverse triangle: Example 3.1 (3 mg/kg); Diamond: Example 3.1 (10 mg/kg)]. Values are given as mean+standard deviation (n=6).

SMILES	half-life [1] [h]	bioavailability [1] [%]	LH suppression ([2]; 0.5 mg/kg single per oral administration) [%]	LH suppression ([2]; 3 mg/kg single per oral administration) [%]	LH suppression ([2]; 10 mg/kg single per oral administration) [%]	in vivo GnRH antagonist activity (conclusion) ([2]; per oral administration)
O=C(NCc1ncc(C(F)(F)F)cc1F)c1ccc2c(c1)C1(CCS(=O)(=O)CC1)[C@H](C1CC1)N2S(=O)(=O)c1ccc(F)cc1 (single isomer, unassigned) [Example 1.1]	5.2	32	–	–	–	–
N#Cc1cccc(S(=O)(=O)N2c3ccc(C(=O)NCc4ncc(C(F)(F)F)cc4Cl)cc3C3(CCS(=O)(=O)CC3)[C@@H]2C2CC2)c1 (single isomer, unassigned) [Example 10.1]	3.3	23	–	–	–	–
O=C(NCc1ncc(C(F)(F)F)cc1Cl)c1ccc2c(c1)C1(CCS(=O)(=O)CC1)[C@H](C1CC1)N2S(=O)(=O)c1ccc(F)cc1 [Example 3.1, (2S)—N-{[3-chloro-5-(trifluoromethyl)pyridin-2-yl]methyl}-2-cyclopropyl-1-[(4-fluorophenyl)sulfonyl]-1,2,2′,3′,5′,6′-hexahydrospiro[indole-3,4′-thiopyran]-5-carboxamide 1′,1′-dioxide]	17	87	19	48	90	orally active GnRH antagonist in vivo
